Tests used:
MIN6 cells = experiment: Insulin secretion assay in MIN6 cells (ELISA); assay type: cell-based, mouse
Method: FIG. 4. The role of Sirt4 in insulin secretion. FIG. 4A. The levels of Sirt4 were reduced in MIN6 cells infected with virus that contained Sirt4 RNAi sequences compared to cells infected with pSUPER. FIG. 4B. Insulin secretion was measured from control or RNAi MIN6 cells. Cells were pre-incubated with KRB buffer containing 3 mM glucose, then cells were shifted to buffer containing either 3 mM (open bars) or 16.7 mM glucose (filled bars). Insulin in the buffer was measured by ELISA after a 45 min incubation at 37° C. FIG. 4C. Insulin remaining inside cells was measured at the end of the insulin secretion assays by ELISA.
FIG. 7. Elevated glutamate dehydrogenase activity contributes to increased insulin secretion in Sirt4 RNAi cells. FIG. 7A. MIN6 cells were co-infected with RNAi for Sirt4 and glutamate dehydrogenase, and protein levels were compared to control infections. FIG. 7B. Insulin secretion assays were performed in double-infected or control cells as described previously. FIG. 7C. Insulin secretion assays were performed in control or Sirt4 RNAi treated cells in the presence or absence of BCH, an activator of glutamate dehydrogenase.
MIN6 cells were plated in the wells of a 12-well plate at least 24-hours before secretion assays. […] Insulin concentration was measured by ELISA (Alpco Diagnostics; Windham, N.H.).

[1] = tested on: bovine recombinant glutamate dehydrogenase; experiment: Glutamate dehydrogenase assay after incubation with Sirt4; assay type: biochemical
Method: FIG. 6. Glutamate dehydrogenase inhibition by Sirt4. FIG. 6A. The enzymatic activity of glutamate dehydrogenase ([…]) was measured before (open bars, T=0) after a 60 min incubation (filled bars, T=60) at 37° C. with hSirt4-FLAG (50 ng) or a buffer control in the presence of 1 mM NAD^+. Experiments were replicated 3-5 times. FIG. 6B. Inhibition of glutamate dehydrogenase by Sirt4 requires 1 mM NAD^+. Glutamate dehydrogenase (50 mg) was incubated with Sirt4 at 37° C. in the presence (pink) or absence (blue) of 1 mM NAD^+. Aliquots (1 ml) were removed at T=0, 5, 15, 30, 60, or 120 min, and glutamate dehydrogenase activity was measured for each time point. FIG. 6C. The activity of glutamate dehydrogenase was measure in mitochondrial lysates (30 mg) from control or Sirt4 RNAi cells. Experiments were performed 3-5 times using cell lines from two separate infections.
Glutamate dehydrogenase (50 μg; Ultrapure from Sigma) was incubated with or without Sirt4 (10 ng) in […] of ADP-ribosylation buffer (50 mM Tris pH 8.0, 10 mM DTT, 150 mM NaCl) in the presence or absence of 1 mM NAD or 1 mM nicotinamide at 37° C. for the indicated times. Then, an aliquot of the reaction was assayed for glutamate dehydrogenase activity. Activity assays were performed at 25° C. using a BioSpec-1601 spectrophotometer (Shimadzu Scientific Instruments, Inc; Braintree, Mass.) at A340 based on the oxidation of NADH as described previously. Data was collected for 5-10 min. at 10 sec. intervals. At the end of each experiment, less than 10% of substrates had been depleted.
Sirt4 or a buffer control was incubated with bovine recombinant glutamate dehydrogenase for one hour in the presence of NAD. Then, the glutamate dehydrogenase activity was assessed by monitoring the disappearance of NADH (A340). […] To verify that this inhibition was dependent on the availability of NAD^+, we incubated Sirt4 with or without NAD^+ with glutamate dehydrogenase for various times. […]

NC1(C(=O)O)CC2CCC1C2 (centres unmarked) [BCH]
insulin secretion with BCH and 16.7 mM glucose compared to 16.7 mM glucose alone (MIN6 cells; Sirt4 RNAi treated MIN6 cells): did not secrete more insulin | insulin secretion with BCH and 16.7 mM glucose compared to 16.7 mM glucose alone (MIN6 cells; control MIN6 cells): enhanced insulin secretion

Sirt4: human Sirt4 with C-terminal FLAG, immunoprecipitated from 293T cells; ADP-ribosyltransferase
inhibition of glutamate dehydrogenase activity ([1]; after incubating for 12 hours): more than 90% | enzymatic activity of glutamate dehydrogenase ([1]; incubated one hour in the presence of NAD, versus buffer control): significantly reduced | inhibition of glutamate dehydrogenase activity ([1]; within 2 hours, in the presence of NAD+): 50%
